Experimental data: paper PMC5100903, “Tissue Kallikrein Inhibitors Based on the Sunflower Trypsin Inhibitor Scaffold – A Potential Therapeutic Intervention for Skin Diseases” (PLoS ONE, 2016)
Like-named read-outs stand apart in the source and are kept apart here. Positions of bridges follow the written chain, without caps; N, C: chain ends. Residues, ends and D or L forms follow the SMILES beside them.

Tests used:
[1] = molecular target: T1, Matriptase (catalytic domain only) (Homo sapiens, UniProt Q9Y5Y6); experiment: biochemical
T1 construct: matriptase (catalytic domain only, >90% purity by SDS-PAGE); purchased R&D
T1 sequence (Q9Y5Y6 615-854 limits assumed): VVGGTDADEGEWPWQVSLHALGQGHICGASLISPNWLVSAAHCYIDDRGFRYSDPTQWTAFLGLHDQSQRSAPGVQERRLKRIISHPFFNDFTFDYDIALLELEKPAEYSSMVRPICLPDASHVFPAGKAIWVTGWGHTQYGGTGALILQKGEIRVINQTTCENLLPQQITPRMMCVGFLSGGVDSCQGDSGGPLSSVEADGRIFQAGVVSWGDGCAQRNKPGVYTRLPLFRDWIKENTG
Description: (§1) All assays were performed on 96-well microplates and the change in relative fluorescence unit (RFU) was measured by fluorescence spectrometer (BMG FLUOstar OPTIMA). The excitation/emission wavelength was 360/460 nm for the substrate Boc-VPR-AMC (Bachem AG, Hauptstrasse, Switzerland) and MeOSuc-AAPV-AMC (Bachem AG, Hauptstrasse, Switzerland) and 485/520 nm for BODIPY_FL casein (Invitrogen, Carlsbad, US). Stock solution of Boc-VPR-AMC was prepared by dissolving the solid in dimethyl sulfoxide to 100 mM and 10 mM for MeOSuc-AAPV. For BODIPY_FL casein, it was reconstituted to 1 mg/mL in 1xPBS. […] The % of inhibition was calculated by the following equation: % of Inhibition=(1−(Sample RFU − Min RFU)/(Max RFU − Min RFU)) X100
(§2) Each inhibition curves were done in triplicates with a minimum of five concentration points fitted. Fitting of each curve was done using SigmaPlot with the Four Parameter Logistic Function and the IC50 calculated. […] All tested compounds were reconstituted to stock solution in water.
(§3) The diluent for all the tested compounds, protein and substrate (except KLK7, which was done with 10 mM Tris pH 7.8) was 1xPBS pH 8.0–8.9. The serially diluted ligands were mixed with diluted bovine trypsin (Sigma, Dorset, U.K.) or activated KLK14, or KLK5, or activated KLK8 or matriptase (catalytic domain only, >90% purity by SDS-PAGE, endotoxin <0.1 ng/μg, R&D, Minneapolis, U.S.) or activated KLK7 or human neutrophil elastase (purified from human plasma, >95% purity by SDS-PAGE, Abcam, Cambridge, U.K.) or porcine pancreatic elastase 1 (Sigma, Dorset, U.K.) or human plasma kallikrein or human plasma plasmin (purified from human plasma, ≥95% purity by SDS-PAGE, BioVision, Milpitas, U.S.). 20μL of the ligand-protein mixture was pipetted to a well of a 96-well microplate in triplicates. The reaction was started by addition of 90–100 μL of the diluted substrate solution (contained 0.05% v/v Brij35) and the plate incubated at 25°C but 37°C for KLK7. RFU reading for each well was taken 6 minutes (trypsin) or 15 minutes (KLK14, KLK5, KLK8, matriptase, human neutrophil elastase, porcine pancreatic elastase 1, plasma kallikrein and plasmin) or 20 hours (KLK7) after substrate addition.

Bovine Trypsin = molecular target: T2, Bovine Trypsin (Bos taurus, UniProt P00760); experiment: biochemical
T2 construct: purchased Sigma
T2 sequence (P00760 24-246): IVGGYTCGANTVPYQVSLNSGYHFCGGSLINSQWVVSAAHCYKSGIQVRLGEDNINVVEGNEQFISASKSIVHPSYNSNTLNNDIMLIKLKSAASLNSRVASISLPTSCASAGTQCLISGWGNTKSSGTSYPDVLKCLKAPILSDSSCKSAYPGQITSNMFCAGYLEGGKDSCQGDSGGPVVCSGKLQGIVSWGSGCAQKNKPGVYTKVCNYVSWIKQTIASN
Description: as §1, with “The excitation/emission wavelength was 360/460 nm for the substrate Boc-VPR-AMC (Bachem AG, Hauptstrasse, Switzerland) and MeOSuc-AAPV-AMC (Bachem AG, Hauptstrasse, Switzerland) and 485/520 nm for BODIPY_FL casein (Invitrogen, Carlsbad, US).” left out
as §2
The diluent for all the tested compounds, protein and substrate (except KLK7, which was done with 10 mM Tris pH 7.8) was 1xPBS pH 8.0–8.9. […] 20μL of the ligand-protein mixture was pipetted to a well of a 96-well microplate in triplicates. The reaction was started by addition of 90–100 μL of the diluted substrate solution (contained 0.05% v/v Brij35) and the plate incubated at 25°C but 37°C for KLK7. RFU reading for each well was taken 6 minutes (trypsin) or 15 minutes (KLK14, KLK5, KLK8, matriptase, human neutrophil elastase, porcine pancreatic elastase 1, plasma kallikrein and plasmin) or 20 hours (KLK7) after substrate addition.

[2] = molecular target: T3, Porcine Pancreatic Elastase 1 (Sus scrofa, UniProt P00772); experiment: Porcine pancreatic elastase 1 inhibition, MeOSuc-AAPV-AMC assay; type: biochemical; conditions: read-out: % inhibition of Porcine Pancreatic Elastase 1
T3 construct: purchased Sigma
T3 sequence (P00772 27-266): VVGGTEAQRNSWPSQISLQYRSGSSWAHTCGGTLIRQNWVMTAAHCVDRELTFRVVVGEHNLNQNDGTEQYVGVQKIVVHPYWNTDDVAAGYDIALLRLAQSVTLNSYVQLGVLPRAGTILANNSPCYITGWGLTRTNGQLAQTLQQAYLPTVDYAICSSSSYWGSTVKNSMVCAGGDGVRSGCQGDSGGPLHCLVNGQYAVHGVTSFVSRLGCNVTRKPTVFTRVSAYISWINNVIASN
Description: as §1, §2, §3

Human Plasma Kallikrein = Human Plasma Kallikrein (Homo sapiens, UniProt P03952); experiment: Human plasma kallikrein inhibition, Boc-VPR-AMC assay; type: biochemical; conditions: read-out: % inhibition of Human Plasma Kallikrein
Human Plasma Kallikrein, sequence (P03952 20-638): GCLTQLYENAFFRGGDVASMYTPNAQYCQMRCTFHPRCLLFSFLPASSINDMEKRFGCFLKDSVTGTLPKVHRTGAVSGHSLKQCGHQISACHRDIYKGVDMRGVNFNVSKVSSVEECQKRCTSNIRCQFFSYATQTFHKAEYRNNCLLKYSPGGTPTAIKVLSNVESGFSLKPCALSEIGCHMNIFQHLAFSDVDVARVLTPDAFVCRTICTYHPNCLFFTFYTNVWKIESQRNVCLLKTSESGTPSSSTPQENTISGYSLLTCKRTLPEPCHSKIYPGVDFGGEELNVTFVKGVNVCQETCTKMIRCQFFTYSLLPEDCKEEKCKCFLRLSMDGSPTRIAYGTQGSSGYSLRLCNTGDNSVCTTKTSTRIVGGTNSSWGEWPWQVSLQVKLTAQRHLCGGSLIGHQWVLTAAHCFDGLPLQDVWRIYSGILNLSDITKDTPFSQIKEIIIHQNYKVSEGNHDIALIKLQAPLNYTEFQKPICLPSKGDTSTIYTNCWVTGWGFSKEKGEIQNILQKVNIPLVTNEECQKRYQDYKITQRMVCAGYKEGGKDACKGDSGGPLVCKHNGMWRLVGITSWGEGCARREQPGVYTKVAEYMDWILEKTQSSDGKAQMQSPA
Description: as §1, §2, §3

[3] = molecular target: T4, Human Neutrophil Elastase (Homo sapiens, UniProt P08246); experiment: Human neutrophil elastase inhibition, MeOSuc-AAPV-AMC assay; type: biochemical; conditions: read-out: % inhibition of Human Neutrophil Elastase
T4 construct: human neutrophil elastase (purified from human plasma); purchased Abcam; host or cells: human plasma (so in the source)
T4 sequence (P08246 30-247 limits assumed): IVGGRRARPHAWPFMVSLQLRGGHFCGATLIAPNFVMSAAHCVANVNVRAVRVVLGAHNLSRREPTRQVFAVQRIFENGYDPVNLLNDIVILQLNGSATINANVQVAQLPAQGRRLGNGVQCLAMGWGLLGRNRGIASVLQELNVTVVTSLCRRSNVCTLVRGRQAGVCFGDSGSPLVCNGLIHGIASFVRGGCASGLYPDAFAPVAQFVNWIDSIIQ
Description: as §1, §2, §3

[4] = at 10 μM, enzyme 46 nM, MeOSuc-AAPV-AMC 41 μM
[5] = at 10 μM, enzyme 14 nM, Boc-VPR-AMC 42 μM
[6] = at 10 μM, enzyme 10 nM, MeOSuc-AAPV-AMC 41 μM

Row | Compound | IC50 [1] [nM] | IC50 (Bovine Trypsin) [nM] | inhibition at 10 µM [2] [%] | inhibition at 10 µM (Human Plasma Kallikrein) [%] | inhibition at 10 µM [3] [%] | IC50 ([1]; enzyme 10 nM, Boc-VPR-AMC 21 μM, 25°C, 15 minutes) [nM] | IC50 (Bovine Trypsin; enzyme 10 nM, Boc-VPR-AMC 21 μM, 25°C, 6 minutes) [nM] | inhibition at 10 µM [2, 4] [%] | inhibition at 10 µM (Human Plasma Kallikrein; [5]) [%] | inhibition at 10 µM [3, 6] [%]
1 | CC[C@H](C)[C@@H]1NC(=O)[C@H](CO)NC(=O)[C@H](CCCCN)NC(=O)[C@H]([C@@H](C)O)NC(=O)[C@@H]2CSSC[C@H](NC(=O)[C@H](Cc3c[nH]cn3)NC(=O)[C@@H]3CCCN3C(=O)[C@@H]3CCCN3C1=O)C(=O)N[C@@H](Cc1c[nH]c3ccccc13)C(=O)N1CCC[C@H]1C(=O)N[C@@H](CC(=O)O)C(=O)NCC(=O)N[C@@H](CCCNC(=N)N)C(=O)N2 [Analogue 2] (cyclo(CTKSIPPHCWPDGR); disulfide 1-9) | 206 ± 10 | 20 ± 0.2 | 0 | 0 | 0 |  |  |  |  | 
2 | CC[C@H](C)[C@@H]1NC(=O)[C@H](CO)NC(=O)[C@H](CCCNC(=N)N)NC(=O)[C@H]([C@@H](C)O)NC(=O)[C@@H]2CSSC[C@H](NC(=O)[C@H](Cc3c[nH]cn3)NC(=O)[C@@H]3CCCN3C(=O)[C@@H]3CCCN3C1=O)C(=O)N[C@@H](Cc1c[nH]c3ccccc13)C(=O)N1CCC[C@H]1C(=O)N[C@@H](CC(=O)O)C(=O)NCC(=O)N[C@@H](CCCNC(=N)N)C(=O)N2 [Analogue 6] (cyclo(CTRSIPPHCWPDGR); disulfide 1-9) | 381 ± 12 | 23 ± 1 | 0 | 15 | 0 |  |  |  |  | 
3 | CC[C@H](C)[C@@H]1NC(=O)[C@H](CO)NC(=O)[C@H](CCCCN)NC(=O)[C@H]([C@@H](C)O)NC(=O)[C@@H]2CSSC[C@H](NC(=O)[C@H](Cc3c[nH]cn3)NC(=O)[C@@H]3CCCN3C(=O)[C@@H]3CCCN3C1=O)C(=O)N[C@@H](Cc1ccccc1)C(=O)N1CCC[C@H]1C(=O)N[C@@H](CC(=O)O)C(=O)NCC(=O)N[C@@H](CCCNC(=N)N)C(=O)N2 [Analogue I10H] (cyclo(CFPDGRCTKSIPPH); disulfide 1-7) |  |  |  |  |  | 2240 ± 567 | 46 ± 2 | 0 | 0 | 0
4 | CC[C@H](C)[C@@H]1NC(=O)[C@@H]2CCCN2C(=O)[C@@H]2CCCN2C(=O)[C@H]([C@@H](C)CC)NC(=O)[C@H](CO)NC(=O)[C@H](CCCCN)NC(=O)[C@H]([C@@H](C)O)NC(=O)[C@@H]2CSSC[C@H](NC1=O)C(=O)N[C@@H](Cc1ccccc1)C(=O)N1CCC[C@H]1C(=O)N[C@@H](CC(=O)O)C(=O)NCC(=O)N[C@@H](CCCNC(=N)N)C(=O)N2 [Native SFTI, Sunflower Trypsin Inhibitor 1, reference compound] | 1250 ± 57 |  |  |  |  |  |  | 0 | 0 | 0
